This passage reports GI50 and TGI results from PubChem BioAssay (NCI).

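Results reflect a 48-hour exposure of cells in 96-well plates to compound at five concentrations. GI50 is the concentration that inhibits growth by half. TGI is the concentration that stops growth completely.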

Common to all, as to assay: NCI anticancer screen, dose series, 48 h
In assay [1] the test system is TK-10 renal.
Assay [2] relates to DU-145 prostate.
The test system of assay [3] is SW-620 colon.
The test system of assay [4] is SN12C renal.
Assay [5] has as its system UACC-62 melanoma.
The test system of assay [6] is MALME-3M melanoma.
In assay [7] the test system is SK-MEL-28 melanoma.
For assay [8], the system named is OVCAR-4 ovarian.
The subject of assay [9] is SK-MEL-5 melanoma.
The subject of assay [10] is SF-295 CNS.

`COc1ccc(Nn2c(SCC(=O)Nc3nc(-c4ccc(Cl)cc4)cs3)nc(C)c2C)cc1`: the GI50 is 14.8 µM in assay [1]; 4.06 µM in assay [2]; 4.78 µM in [3]; 2.3 µM in [4]; 3.62 µM in [5]; 2.9 µM in assay [6]. For the same compound, the GI50 in assay [7] was 18 µM; in assay [8], 4.02 µM; in assay [9], 1.41 µM; in assay [10] it was 2.18 µM. The TGI is 80.9 µM in assay [1]; more than 100 µM in [2]; more than 100 µM in assay [3]; 7.52 µM in [4]; more than 100 µM in assay [5]; more than 100 µM in assay [6]. In addition, the TGI is more than 100 µM in [7], more than 100 µM in assay [8], 3.35 µM in assay [9] and more than 100 µM in assay [10].

As to `CCCCCCCC/C=C/CCCCCCCC1=NCC[N+]1(CCO)CCO`, the GI50 is 1.94 µM in assay [1]; 4.41 µM in [2]; 1.82 µM in assay [3]; 3.2 µM in assay [4]; 5 µM in assay [5]; 3.19 µM in [6]. Further, the GI50 in [7] is 9.71 µM; in assay [8] it was 3.87 µM; in assay [9] it was 2.24 µM; in assay [10], 1.75 µM. The TGI in assay [1] was 4.39 µM; in [2], 16.2 µM; in assay [3], 4.38 µM; in assay [4], 12.6 µM; in assay [5], 21.4 µM; in assay [6] it was 12.4 µM. Moreover, the TGI in assay [7] is 21.6 µM; in assay [8], 14.9 µM; in assay [9], 5.68 µM; in assay [10] it was 4.07 µM.

Take `COc1ccc(NC(=O)n2nc(N)c3ccccc32)cc1OC`: the GI50 in assay [1] was 92.4 µM; in assay [2] it was 73.1 µM; in assay [3] it was more than 100 µM; in assay [4] it was more than 100 µM; in assay [5], 52.3 µM; in assay [6], more than 100 µM. Moreover, the GI50 is more than 100 µM in assay [7], 63.2 µM in [8], 27.9 µM in assay [9] and 37.6 µM in assay [10]. Moreover, the TGI in [1], in assay [2], in [3], in assay [4], in [5] and in assay [6] was more than 100 µM in each case. Moreover, the TGI in assay [7], in assay [8], in assay [9] and in [10] was more than 100 µM in each case.

Consider `C=C(C)[C@@H]1CC[C@]2(C)[C@H](C(=O)C=C3[C@@H]4C[C@](C)(C(=O)N5CCN(C)CC5)CC[C@]4(C)CC[C@]32C)[C@@]1(C)CCC#N`, for which the GI50 was 8.16 µM in assay [1]; 7.85 µM in assay [2]; 6.99 µM in assay [3]; 6.37 µM in assay [4]; 6.03 µM in [5]; 3.94 µM in [6]. In addition, the GI50 was 7.23 µM in assay [7], 6.21 µM in [8], 7.3 µM in [9] and 7.75 µM in assay [10]. The TGI in [1] was 15.5 µM; in assay [2], 15.3 µM; in [3], 14.9 µM; in assay [4] it was 12.9 µM; in assay [5] it was 12.5 µM; in assay [6], 10.6 µM. Moreover, the TGI worked out at 13.8 µM in assay [7], 13.6 µM in assay [8], 13.9 µM in assay [9] and 15.2 µM in assay [10].

`CCOc1ccc([C@@H]2[C@@H](Oc3ccccc3)C(=O)N2c2cc(OC)c(OC)c(OC)c2)cc1`: the GI50 in assay [1] is 16 µM; in assay [2], 0.218 µM; in [3], 0.0536 µM; in assay [4], 0.263 µM; in assay [5], 0.0427 µM; in assay [6], more than 100 µM. For the same compound, the GI50 in assay [7] is 1.89 µM; in [8], 0.928 µM; in assay [9], 0.0395 µM; in assay [10] it was 0.0534 µM. In addition, the TGI in assay [1], in [2], in assay [3], in assay [4], in assay [5] and in [6] was more than 100 µM in each case. The TGI in assay [7] is more than 100 µM; in [8], more than 100 µM; in [9], 1.16 µM; in assay [10] it was more than 100 µM.

Regarding `Cc1nc2sccn2c(=O)c1CCN1CCC(=C(c2ccc(F)cc2)c2ccc(F)cc2)CC1`, the GI50 in [1] was 13.9 µM; in [2] it was 15.7 µM; in [3] it was 10.9 µM; in assay [4], 14.5 µM; in assay [5] it was 6.73 µM; in assay [6], 11.4 µM. Also, the GI50 in assay [7] is 13.4 µM; in assay [8] it was 12.6 µM; in assay [9], 4.01 µM; in assay [10], 13 µM. Besides, the TGI was determined as 27.6 µM in assay [1]; 30.4 µM in assay [2]; 24.1 µM in [3]; 29.3 µM in [4]; 20.5 µM in assay [5]; 25.5 µM in assay [6]. Also, the TGI came to 26.9 µM in [7], 27.9 µM in [8], 15 µM in assay [9] and 28.7 µM in assay [10].

`O=[N+]([O-])c1ccc(-c2nc(-c3ccccc3)c(-c3ccccc3)n2-c2ccccc2)cc1`: the GI50 in assay [1] is 4.01 µM; in [2] it was 2.72 µM; in [3], 2.6 µM; in assay [4] it was 2.69 µM; in assay [5], 2.18 µM; in [6] it was 2.78 µM. In addition, the GI50 in assay [7] is 2.99 µM; in assay [8] it was 2.94 µM; in assay [9] it was 1.8 µM; in assay [10] it was 2.68 µM. In addition, the TGI in assay [1] stood at 16.9 µM; in assay [2], 12.2 µM; in assay [3], 9.28 µM; in [4], 12.4 µM; in [5] it was 8.53 µM; in assay [6], 8.58 µM. Moreover, the TGI in assay [7] amounted to 9.97 µM; in assay [8], 14.9 µM; in assay [9], 3.81 µM; in assay [10], 8.25 µM.
